One assay concerns MT4. Briefly: Effective dose of compound required to inhibit replication of human immunodeficiency virus type 1 in MT-4 cells. Format: functional. The settings on record: read-out: ED50 (the source's name).
Assay [1] deals with Human immunodeficiency virus type 1 protease (Human immunodeficiency virus 1) (UniProt Q72874).
Description: Dissociation rate constant for human immunodeficiency virus type 1 protease
Assay [2] shares this target. This is another data set of the same source.
Description: Association rate constant for human immunodeficiency virus type 1 protease
The target in assay [3] is T1, Human immunodeficiency virus type 1 protease (Human immunodeficiency virus 1, UniProt Q72874). Briefly: Binding affinity for human immunodeficiency virus type 1 protease.
Assay [4] deals with T1, Human immunodeficiency virus type 1 protease. Briefly: Inhibition constant for human immunodeficiency virus type 1 protease.

On to `CC(C)(C)NC(=O)[C@@H]1CN(Cc2cccnc2)CCN1C[C@@H](O)C[C@@H](Cc1ccccc1)C(=O)N[C@H]1c2ccccc2C[C@H]1O`, for which, in the assay with MT4, the EC50 was 50 nM.
For orientation: Kd means a measure of binding affinity in units of concentration. The compound `O=C(NC1c2ccccc2C[C@H]1O)[C@H](O)C[C@@H](O)[C@@H](Oc1ccccc1)C(=O)NC1c2ccccc2C[C@@H]1O` (stereo partly drawn) showed a k off in assay [1] of 0.02 s⁻¹. This compound registered a k on in assay [2] of 666000 M⁻¹ s⁻¹. Besides, in the assay with MT4, the EC50 was determined as 1440 nM. In addition, binding in assay [3] was put at a Kd of 35.8 nM.
For orientation: Ki means a dissociation constant, usually derived from enzyme kinetics or from competition with a known ligand. Higher therefore signals a looser hold on the target. In the case of `O=C(NC1c2ccccc2C[C@@H]1O)[C@H](O)[C@H](O)[C@@H](O)[C@@H](Oc1ccccc1)C(=O)NC1c2ccccc2C[C@@H]1O` (stereo partly drawn), the k off in assay [1] amounted to 0.01 s⁻¹. In assay [2], this compound yielded a k on of 6.39e+06 M⁻¹ s⁻¹. This compound also gave a Ki in assay [4] of 0.6 nM. Further, the EC50 in the assay with MT4 was found to be 100 nM. In assay [3], the equilibrium dissociation constant (Kd) was found to be 13.9 nM.
Taken in the same sequence, the figures for `CC(C)[C@H](C)C(=O)NC(=O)[C@H](O)[C@H](O)[C@@H](O)[C@@H](Oc1ccccc1)C(=O)NC(=O)[C@@H](C)C(C)C` were 0.00367 s⁻¹, 355000 M⁻¹ s⁻¹, 0.4 nM, 1320 nM and 10.8 nM.
Compound `CC(C)[C@H](C)C(=O)NC(=O)[C@H](O)[C@H](O)[C@@H](O)[C@@H](Oc1ccc(Br)cc1)C(=O)NC(=O)[C@@H](C)C(C)C` registered a k off in assay [1] of 0.00169 s⁻¹. In assay [4], this compound yielded an inhibition constant (Ki) of 0.3 nM. The EC50 in the assay on MT4 stood at 650 nM. In addition, binding in assay [3] was put at a Kd of 21.1 nM.
Regarding `Cc1c(O)cccc1C(=O)N[C@@H](CSc1ccccc1)[C@H](O)CN1C[C@H]2CCCC[C@H]2C[C@H]1C(=O)NC(C)(C)C`, in the assay on MT4, the EC50 was 20 nM.
Turning to `CC(C)[C@H](C)C(=O)NC(=O)[C@H](O)[C@H](O)[C@@H](O)[C@@H](Oc1ccc(-c2cccc([N+](=O)[O-])c2)cc1)C(=O)NC(=O)[C@@H](C)C(C)C`, in assay [1], the k off worked out at 0.000817 s⁻¹. Further, the k on in assay [2] is 181000 M⁻¹ s⁻¹. The Ki in assay [4] was 1.4 nM. In the assay on MT4, the EC50 worked out at 160 nM. The compound further showed a Kd in assay [3] of 18.2 nM.
Taken in the same sequence, the figures for `C[C@@H](Cc1ccc(O)cc1)C(=O)NC(=O)[C@H](O)[C@H](O)[C@@H](O)[C@@H](Oc1ccccc1)C(=O)NC(=O)[C@@H](C)Cc1ccc(O)cc1` were 0.06 s⁻¹, 172 M⁻¹ s⁻¹, 5000 nM, > 67000 nM and 309000 nM.
As to `CC(C)c1nc(CN(C)C(=O)N[C@H](C(=O)N[C@@H](Cc2ccccc2)C[C@H](O)[C@H](Cc2ccccc2)NC(=O)OCc2cncs2)C(C)C)cs1` [RITONAVIR], the EC50 with MT4 was 50 nM.
`CC(C)[C@H](C)C(=O)NC(=O)[C@H](O)[C@@H](O)[C@H](O)[C@@H](Oc1ccccc1)C(=O)NC(=O)[C@@H](C)C(C)C`: in assay [1], the k off amounted to 0.02 s⁻¹. The k on in assay [2] was determined as 9200 M⁻¹ s⁻¹. The inhibition constant Ki in assay [4] is 40 nM. Besides, the EC50 in the assay on MT4 stood at 22900 nM. The same compound displayed a dissociation constant (Kd) in assay [3] of 2990 nM.
Taken in the same sequence, the figures for `CC(C)[C@H](C)C(=O)NC(=O)[C@H](O)[C@H](O)[C@@H](O)[C@@H](Oc1ccc(CCc2ccccc2)cc1)C(=O)NC(=O)[C@@H](C)C(C)C` were 0.00163 s⁻¹, 81100 M⁻¹ s⁻¹, 0.8 nM, 2050 nM and 34.2 nM.
In assay [1], `Cc1cccc(C)c1OCC(=O)N[C@@H](Cc1ccccc1)[C@@H](O)C[C@H](Cc1ccccc1)NC(=O)[C@H](C(C)C)N1CCCNC1=O` [LOPINAVIR] had a k off of 0.000654 s⁻¹. Besides, in assay [2], the k on is 6.63e+06 M⁻¹ s⁻¹. The EC50 with MT4 was 10 nM.
Compound `CC(C)[C@H](C)C(=O)NC(=O)[C@H]([O-])[C@H](O)[C@@H](O)[C@@H](Oc1ccc(C2=CC=[S+]C2)cc1)C(=O)NC(=O)[C@@H](C)C(C)C` gave a k off in assay [1] of 0.000432 s⁻¹. In assay [2], this compound came in with a k on of 348000 M⁻¹ s⁻¹. This compound came in with a Ki in assay [4] of 1.2 nM. For the same compound, the EC50 in the assay with MT4 is 40 nM. The same compound had an equilibrium dissociation constant (Kd) in assay [3] of 3.04 nM.
Consider `CC(C)(C)NC(=O)c1ccccc1NC[C@H](O)[C@H](Cc1ccccc1)NC(=O)[C@H](CC(N)=O)NC(=O)c1ccc2ccccc2n1`, for which the EC50 in the assay on MT4 stood at 10100 nM.
In turn, `CC(C)[C@H](C)C(=O)NC(=O)[C@H](O)[C@H](O)[C@@H](O)[C@@H](Oc1ccc(-c2nccs2)cc1)C(=O)NC(=O)[C@@H](C)C(C)C` returned a k off in assay [1] of 0.000303 s⁻¹. The compound further returned a k on in assay [2] of 477000 M⁻¹ s⁻¹. The compound further yielded an inhibition constant (Ki) in assay [4] of 0.55 nM. The EC50 in the assay on MT4 worked out at 240 nM. For the same compound, binding in assay [3] was put at a Kd of 0.64 nM.
On to `CC(NO)c1cccc(CN2[C@H](COc3ccccc3)[C@H](O)[C@@H](O)[C@@H](COc3ccccc3)N(Cc3cccc(C(C)NO)c3)S2(=O)=O)c1` (stereo partly drawn), for which the k off in assay [1] stood at 0.04 s⁻¹. The k on in assay [2] worked out at 512000 M⁻¹ s⁻¹. In assay [4], this compound returned an inhibition constant Ki of 5.6 nM. The EC50 with MT4 is 2900 nM. This compound also gave a Kd in assay [3] of 169 nM.
On to `O=S1(=O)N(Cc2ccc(CO)cc2)[C@H](COc2ccccc2)[C@H](O)[C@@H](O)[C@@H](COc2ccccc2)N1Cc1ccc(CO)cc1`, for which the k off in assay [1] was 0.0273 s⁻¹. The EC50 in the assay on MT4 turned out to be 1550 nM.
In turn, `CC(C)[C@H](C)C(=O)NC(=O)[C@H](O)[C@H](O)[C@@H](O)[C@@H](Oc1ccc(-c2ccccn2)cc1)C(=O)NC(=O)[C@@H](C)C(C)C` gave a k off in assay [1] of 0.000373 s⁻¹. This compound showed a k on in assay [2] of 323000 M⁻¹ s⁻¹. Moreover, the Ki in assay [4] amounted to 0.61 nM. Moreover, the EC50 in the assay on MT4 turned out to be 640 nM. For the same compound, binding in assay [3] was put at a Kd of 1.18 nM.
Compound `COC(=O)N[C@H](C(=O)N[C@@H](Cc1ccccc1)[C@@H](O)CN(Cc1ccc(-c2ccccn2)cc1)NC(=O)[C@@H](NC(=O)OC)C(C)(C)C)C(C)(C)C` [ATAZANAVIR] gave a k off in assay [1] of 0.00069 s⁻¹. The k on in assay [2] was 1.67e+06 M⁻¹ s⁻¹. The Ki in assay [4] is 0.24 nM. Moreover, the EC50 in the assay with MT4 stood at 6 nM. This compound also came in with a Kd in assay [3] of 0.4 nM.
Regarding `CC(C)(C)NC(=O)[C@@H]1C[C@@H]2CCCC[C@@H]2CN1C[C@@H](O)[C@H](Cc1ccccc1)NC(=O)[C@H](CC(N)=O)NC(=O)c1ccc2ccccc2n1`, the EC50 with MT4 came to 10 nM.
As to `CC(C)CN(C[C@@H](O)[C@H](Cc1ccccc1)NC(=O)O[C@H]1CCOC1)S(=O)(=O)c1ccc(N)cc1`, the k off in assay [1] came to 0.00488 s⁻¹. Moreover, in assay [2], the k on was determined as 4.43e+06 M⁻¹ s⁻¹. The inhibition constant (Ki) in assay [4] was 0.23 nM. The EC50 in the assay on MT4 is 80 nM. The dissociation constant Kd in assay [3] is 1.1 nM.
In assay [1], `CC(C)[C@H](C)C(=O)NC(=O)[C@H](O)[C@H](O)[C@@H](O)[C@@H](Oc1ccc(C2=C(O)C(=O)CCC2)cc1)C(=O)NC(=O)[C@@H](C)C(C)C` registered a k off of 0.000487 s⁻¹. This compound yielded a k on in assay [2] of 29300 M⁻¹ s⁻¹. The compound also registered a Ki in assay [4] of 0.3 nM. Moreover, in the assay on MT4, the EC50 came to 5600 nM. The same compound came in with a dissociation constant (Kd) in assay [3] of 17.5 nM.
The like results for `Cc1cc(NS(=O)(=O)c2ccc(N)cc2)no1` [SULFAMETHOXAZOLE] were, in that order, 0.06 s⁻¹, 188000 M⁻¹ s⁻¹, 10.1 nM, > 79000 nM and 577 nM.
`COC(=O)/C=C/c1ccc(O[C@@H](C(=O)NC(=O)[C@@H](C)C(C)C)[C@H](O)[C@@H](O)[C@@H](O)C(=O)NC(=O)[C@@H](C)C(C)C)cc1`: the k off in assay [1] stood at 0.000365 s⁻¹. Moreover, in assay [2], the k on worked out at 204000 M⁻¹ s⁻¹. Affinity in assay [4] was put at a Ki of 0.09 nM. The EC50 in the assay with MT4 was found to be 2580 nM. For the same compound, the Kd in assay [3] amounted to 1.95 nM.
Take `CC(C)(C)NC(=O)c1ccccc1NC[C@@H](O)[C@H](Cc1ccccc1)NC(=O)[C@H](CC(N)=O)NC(=O)OCc1ccccc1`: the EC50 in the assay on MT4 was determined as 3310 nM.
`CC(C)[C@H](C)C(=O)NC(=O)[C@H](O)[C@H](O)[C@@H](O)[C@@H](Oc1ccccc1)C(=O)NC1c2ccccc2C[C@@H]1O` (stereo partly drawn) returned a k off in assay [1] of 0.02 s⁻¹. Moreover, the k on in assay [2] turned out to be 5.97e+06 M⁻¹ s⁻¹. For the same compound, the affinity in assay [4] corresponds to a Ki of 0.05 nM. In addition, the EC50 in the assay on MT4 was 120 nM. Besides, the Kd in assay [3] is 4.42 nM.
With `CCO[C@@H](C(=O)NC(=O)[C@@H](C)C(C)C)[C@H](O)[C@@H](O)[C@@H](O)C(=O)NC(=O)[C@@H](C)C(C)C`, in assay [1], the k off is 0.00485 s⁻¹. This compound had a k on in assay [2] of 134 M⁻¹ s⁻¹. Further, in the assay with MT4, the EC50 was > 192000 nM. The compound also displayed a Kd in assay [3] of 38400 nM.

The record behind these values is ChEMBL document CHEMBL1138847, “Improved structure-activity relationship analysis of HIV-1 protease inhibitors using interaction kinetic data” (J Med Chem, 2004).
